Series [1] can be described thus: Stability testing following conditioning in a humid atmosphere (80% RH, 24 hours). The note with it: 80% relative humidity. Type of series: physicochemical. The procedure: Stability testing of the polymorph of Rifaximin following conditioning in a humid atmosphere.
Two samples of the polymorphic form κ of Rifaximin: 63/11A, which was obtained by means of the procedure of example 4, and 69/11B, which was obtained by means of the procedure of example 1, were maintained for 24 hours in an environment of relative humidity equal to 80%. At the end of the conditioning, an increase of approximately 3%, ascribable to the adsorption of water from the environment, was recorded.

Series [2] is described as follows: Exposure at room temperature to variable relative humidity for 12 days and to RH 80% for 5 months. Type of series: physicochemical. From the text: The polymorph obtained with the procedure described in example 2 was exposed at room temperature to variable relative humidity for a time period of 12 days, and then for a period of 5 months. When the humidity was increased, there were increases in the mass as shown in Table 2 for 12 days and Table 3 for 5 months.

Entries after “also recorded” stand apart in the source; their conditions may differ.

Regarding `CO[C@H]1/C=C/O[C@@]2(C)Oc3c(C)c(O)c4c(O)c(c5c(nc6cc(C)ccn65)c4c3C2=O)NC(=O)/C(C)=C\C=C\[C@H](C)[C@H](O)[C@@H](C)[C@@H](O)[C@@H](C)[C@H](OC(C)=O)[C@@H]1C` [polymorph κ, (2S,16Z,18E,20S,21S,22R,23R,24R,25S,26S,27S,28E)-5,6,21,23,25-pentahydroxy-27-methoxy-2,4,11,16,20,22,24,26-octamethyl-2,7-(epoxypentadeca-[1,11,13]-trienimmino)-benzofuro-[4,5-e]-pirido-[1,2-α]-benzimidazol-1,15(2H)-dione,25-acetate], the XRPD pattern pre/post-conditioning result in series [1] was “substantially identical to one another; also recorded: without registering significant changes in the XRPD pattern”. In addition, the “increase of mass of the sample (adsorption of water)” value in series [1] was “about 3%”; in series [1] (listed as 63/11A) it was “approximately 3%”; in series [1] (listed as 69/11B), “approximately 3%”. Moreover, the “% water after exposure to 80% humidity (RH 80%)” value in series [2] (1 month) worked out at 4.38%; in series [2] (2 months) it was 4.45%; in series [2] (5 months), 4.55%; in series [2] (4 days), 4.38%; in series [2] (7 days), 4.44%; in series [2] (14 days), 4.37%. Further, the “% water after exposure to 80% humidity (RH 80%)” value in series [2] (initial) came out at 1.85%. Besides, the “value at which the increase of mass becomes stable” value in series [2] (80% humidity, stable after 4 days, unchanged after 5 months) is reported as “approximately 4.5%”. Moreover, the “% water following exposure to 80% and 45% humidity” value in series [2] (RH 80% 4 days, total days 4) was found to be 4.66%; in series [2] (initial, total days 0), 1.85%; in series [2] (then RH 45% 1 day, total days 12) it was 3.43%; in series [2] (then RH 45% 3 days, total days 7), 3.40%; in series [2] (then RH 80% 4 days, total days 11) it was 4.52%. Besides, the “DRX pattern after conditioning” value in series [2] (RH 80%, 5 months) is listed as “correspond to that one shown in FIG. 1”. Besides, the “nature of the water adsorption process” value in series [2] (cycling between RH 80% and RH 45%, 12 days) is “superficial and reversible”. The maximum adsorption in series [2] (prolonged exposure to relative humidity of 80%) was 4.5%.
